In ChEMBL document CHEMBL2380250, “Novel VEGFR-2 kinase inhibitors identified by the back-to-front approach” (Bioorg Med Chem Lett, 2013):
Calls of active or inactive are those of the source. The calls are words filed in the database; no cut-off is given here.

Key:
HeLa = experiment: Cytotoxicity against human HeLa cells assessed as growth inhibition by MTT assay; type: cell-based
[1] = Ratio of cytotoxicity against human EAhy926 cells to antiangiogenic activity in VEGF-stimulated human EAhy926 cells; type: toxicity, cell-based
[2] = Cytotoxicity against human EAhy926 cells assessed as growth inhibition by MTT assay; type: cell-based; conditions: EA.hy 926
[3] = Cytotoxicity against human H460 cells assessed as growth inhibition by MTT assay; type: cell-based; conditions: NCI-H460
[4] = target: Vascular endothelial growth factor receptor 2 (Homo sapiens, UniProt P35968); experiment: Inhibition of human recombinant VEGFR2 expressed in insect cells using Ulight-CAGAGAIETDKEYYTVKD as substrate after 15 to 60 mins by fluorescence assay
Chain of Vascular endothelial growth factor receptor 2 (P35968 whole entry): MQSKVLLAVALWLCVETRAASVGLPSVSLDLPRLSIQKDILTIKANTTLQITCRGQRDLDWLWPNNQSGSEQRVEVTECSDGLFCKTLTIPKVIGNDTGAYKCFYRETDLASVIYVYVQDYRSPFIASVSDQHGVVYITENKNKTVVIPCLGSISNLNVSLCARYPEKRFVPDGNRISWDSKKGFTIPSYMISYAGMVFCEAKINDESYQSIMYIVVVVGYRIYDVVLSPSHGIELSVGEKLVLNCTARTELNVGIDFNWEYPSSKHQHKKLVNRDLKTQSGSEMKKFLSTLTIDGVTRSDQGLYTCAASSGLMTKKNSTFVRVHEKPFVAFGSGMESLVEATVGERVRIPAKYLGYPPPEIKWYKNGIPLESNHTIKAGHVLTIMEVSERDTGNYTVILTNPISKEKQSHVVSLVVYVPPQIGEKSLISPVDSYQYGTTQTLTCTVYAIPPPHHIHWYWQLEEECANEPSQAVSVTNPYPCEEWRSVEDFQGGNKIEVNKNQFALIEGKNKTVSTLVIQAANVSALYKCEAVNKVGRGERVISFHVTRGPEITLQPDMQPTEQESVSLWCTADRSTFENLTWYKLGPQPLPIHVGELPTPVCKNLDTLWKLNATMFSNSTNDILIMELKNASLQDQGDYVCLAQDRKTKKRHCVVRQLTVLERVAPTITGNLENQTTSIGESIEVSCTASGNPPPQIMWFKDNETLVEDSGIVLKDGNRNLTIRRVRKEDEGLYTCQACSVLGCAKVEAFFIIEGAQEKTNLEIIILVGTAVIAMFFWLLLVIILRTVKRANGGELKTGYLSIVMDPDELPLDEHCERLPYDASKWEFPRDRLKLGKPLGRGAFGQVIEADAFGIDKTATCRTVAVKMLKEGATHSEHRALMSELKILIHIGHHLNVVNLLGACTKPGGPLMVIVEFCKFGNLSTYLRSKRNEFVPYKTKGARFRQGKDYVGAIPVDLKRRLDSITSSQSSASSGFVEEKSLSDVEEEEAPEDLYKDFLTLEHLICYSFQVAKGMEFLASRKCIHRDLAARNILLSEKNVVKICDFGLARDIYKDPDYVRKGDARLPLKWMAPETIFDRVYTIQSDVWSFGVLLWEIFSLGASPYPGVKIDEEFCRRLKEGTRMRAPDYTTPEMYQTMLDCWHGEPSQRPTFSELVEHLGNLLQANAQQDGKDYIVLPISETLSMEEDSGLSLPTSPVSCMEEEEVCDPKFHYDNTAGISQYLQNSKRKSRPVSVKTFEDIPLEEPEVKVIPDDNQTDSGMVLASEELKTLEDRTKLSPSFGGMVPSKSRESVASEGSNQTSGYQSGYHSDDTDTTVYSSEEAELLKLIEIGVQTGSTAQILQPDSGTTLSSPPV

HepG2 = experiment: Cytotoxicity against human HepG2 cells assessed as growth inhibition by MTT assay; type: cell-based
[5] = target: Platelet-derived growth factor receptor beta (Homo sapiens) (UniProt P09619); experiment: Inhibition of human recombinant PDGFR-beta expressed in insect cells using Ulight-Poly GAT[EAY(1:1:1)] as substrate at 1 uM after 15 to 60 mins by fluorescence assay
Chain of Platelet-derived growth factor receptor beta (Homo sapiens) (P09619 whole entry): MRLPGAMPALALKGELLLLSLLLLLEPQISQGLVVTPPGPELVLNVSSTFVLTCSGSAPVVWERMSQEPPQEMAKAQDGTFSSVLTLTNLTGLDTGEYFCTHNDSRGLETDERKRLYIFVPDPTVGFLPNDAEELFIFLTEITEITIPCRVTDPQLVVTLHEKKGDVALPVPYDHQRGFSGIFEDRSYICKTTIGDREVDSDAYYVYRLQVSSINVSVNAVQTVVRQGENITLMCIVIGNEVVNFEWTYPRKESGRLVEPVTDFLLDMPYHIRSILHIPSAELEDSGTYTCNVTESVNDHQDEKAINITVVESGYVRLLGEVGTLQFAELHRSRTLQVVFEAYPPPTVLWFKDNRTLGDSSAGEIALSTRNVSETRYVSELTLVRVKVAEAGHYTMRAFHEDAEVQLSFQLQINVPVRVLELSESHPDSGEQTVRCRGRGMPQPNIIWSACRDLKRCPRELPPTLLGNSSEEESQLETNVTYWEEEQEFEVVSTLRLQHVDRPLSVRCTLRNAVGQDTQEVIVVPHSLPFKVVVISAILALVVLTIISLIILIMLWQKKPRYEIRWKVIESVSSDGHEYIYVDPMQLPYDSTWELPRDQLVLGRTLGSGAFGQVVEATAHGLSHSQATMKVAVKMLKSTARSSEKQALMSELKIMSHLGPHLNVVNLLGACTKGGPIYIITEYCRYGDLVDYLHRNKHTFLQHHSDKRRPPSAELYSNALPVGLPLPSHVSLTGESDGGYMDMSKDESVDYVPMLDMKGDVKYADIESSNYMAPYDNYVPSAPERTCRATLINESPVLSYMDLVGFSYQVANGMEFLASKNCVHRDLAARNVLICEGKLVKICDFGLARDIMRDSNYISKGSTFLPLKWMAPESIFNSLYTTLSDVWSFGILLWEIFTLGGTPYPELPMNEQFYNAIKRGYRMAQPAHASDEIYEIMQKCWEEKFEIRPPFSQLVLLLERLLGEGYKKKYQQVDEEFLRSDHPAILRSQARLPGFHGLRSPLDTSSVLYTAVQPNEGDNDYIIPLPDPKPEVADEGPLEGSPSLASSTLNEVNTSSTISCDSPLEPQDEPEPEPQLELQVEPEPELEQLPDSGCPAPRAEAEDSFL

MCF7 = experiment: Cytotoxicity against human MCF7 cells assessed as growth inhibition by MTT assay; type: cell-based
EA.hy 926 = experiment: Antiangiogenic activity in VEGF-stimulated human EAhy926 cells assessed as inhibition of tube formation at 0.3 uM measured at 24 hrs; type: functional, cell-based
[6] = target: Epidermal growth factor receptor (Homo sapiens) (UniProt P00533); experiment: Inhibition of human recombinant EGFR expressed in insect cells using Ulight-CAGAGAIETDKEYYTVKD as substrate at 1 uM after 15 to 60 mins by fluorescence assay
Chain of Epidermal growth factor receptor (Homo sapiens) (P00533 whole entry): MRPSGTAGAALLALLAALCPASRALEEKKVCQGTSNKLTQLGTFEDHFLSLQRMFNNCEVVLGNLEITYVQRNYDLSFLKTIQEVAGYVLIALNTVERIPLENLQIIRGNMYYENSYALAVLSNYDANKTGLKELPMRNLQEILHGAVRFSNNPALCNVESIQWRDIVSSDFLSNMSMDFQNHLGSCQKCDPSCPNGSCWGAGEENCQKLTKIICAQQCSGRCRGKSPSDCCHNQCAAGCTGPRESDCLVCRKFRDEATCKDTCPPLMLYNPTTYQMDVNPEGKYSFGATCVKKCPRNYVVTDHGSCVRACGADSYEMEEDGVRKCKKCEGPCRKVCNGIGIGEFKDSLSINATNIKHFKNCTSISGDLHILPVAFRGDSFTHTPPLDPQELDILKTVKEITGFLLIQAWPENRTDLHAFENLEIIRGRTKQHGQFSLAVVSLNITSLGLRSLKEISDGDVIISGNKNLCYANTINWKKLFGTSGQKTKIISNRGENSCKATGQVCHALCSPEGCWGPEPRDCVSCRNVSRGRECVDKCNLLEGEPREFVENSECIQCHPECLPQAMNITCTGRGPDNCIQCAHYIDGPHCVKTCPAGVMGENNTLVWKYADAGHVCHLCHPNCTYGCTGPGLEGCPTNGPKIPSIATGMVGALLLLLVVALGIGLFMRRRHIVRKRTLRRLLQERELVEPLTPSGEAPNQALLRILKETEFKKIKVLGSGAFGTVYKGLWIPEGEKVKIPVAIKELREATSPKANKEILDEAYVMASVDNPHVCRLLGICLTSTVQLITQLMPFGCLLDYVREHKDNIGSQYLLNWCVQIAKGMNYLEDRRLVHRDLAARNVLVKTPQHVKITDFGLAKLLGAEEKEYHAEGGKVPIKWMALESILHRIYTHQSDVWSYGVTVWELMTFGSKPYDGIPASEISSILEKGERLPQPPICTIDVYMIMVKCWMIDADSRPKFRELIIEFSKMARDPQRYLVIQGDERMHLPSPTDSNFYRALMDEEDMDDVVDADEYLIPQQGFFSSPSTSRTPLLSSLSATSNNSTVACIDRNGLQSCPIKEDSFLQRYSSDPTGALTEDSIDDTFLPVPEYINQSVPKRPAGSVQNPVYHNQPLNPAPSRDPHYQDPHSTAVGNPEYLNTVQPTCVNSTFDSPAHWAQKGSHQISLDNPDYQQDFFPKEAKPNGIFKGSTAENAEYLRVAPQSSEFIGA

HUVEC = experiment: Cytotoxicity against HUVEC by MTT assay; conditions: Homo sapiens

Row | SMILES | inhibition [5] | inhibition [6] | also measured
1 | O=C(NCc1cn(-c2ccc3cn[nH]c3c2)nn1)Nc1cccc(CCl)c1 | inactive | Active | IC50 (HeLa): 33 µM; selectivity ratio [1]: 13; IC50 [2]: 4 µM; IC50 [3]: 71 µM; IC50 [4]: 0.56 µM; IC50 (HepG2): > 100 µM; IC50 (MCF7): 21 µM; inhibition (EA.hy 926): Active
2 | O=C(NCc1cn(Cc2cc(=O)[nH]c3ccccc23)nn1)Nc1cccc(CCl)c1 | inactive | Active | 
3 | CNC(=O)c1cc(Oc2ccc(NC(=O)Nc3ccc(Cl)c(C(F)(F)F)c3)cc2)ccn1 [SORAFENIB] |  |  | IC50 (HUVEC): 4 µM
4 | O=C(NCc1cn(CCN2C(=O)c3ccccc3C2=O)nn1)Nc1cccc(CCl)c1 | inactive | Active | 
5 | CC(=O)N1CCc2ccc(-n3cc(CNC(=O)Nc4cccc(CCl)c4)nn3)cc21 | inactive | Active | 
6 | C#CCNC(=O)Nc1cccc(CCl)c1 | inactive | Active | 

Now from value to compound, other results behind:

Row | inhibition [5] | inhibition [6] | SMILES | also measured
7 | inactive | Active | NS(=O)(=O)c1cccc(-n2cc(CNC(=O)Nc3cccc(CCl)c3)nn2)c1 | 
8 | inactive | Active | O=C(NCc1cn(-c2ccc3[nH]ncc3c2)nn1)Nc1cccc(CCl)c1 | 
9 | inactive | Active | COC(=O)c1ccc(-n2cc(CNC(=O)Nc3cccc(CCl)c3)nn2)cc1 | 
10 | inactive | Active | O=C(NCc1cn(-c2ccc(S(=O)(=O)N3CCOCC3)cc2)nn1)Nc1cccc(CCl)c1 | 
11 | inactive | Active | NS(=O)(=O)c1ccc(-n2cc(CNC(=O)Nc3cccc(CCl)c3)nn2)cc1 | 
12 | inactive | Active | O=C(NCc1cn(-c2ccc3ncsc3c2)nn1)Nc1cccc(CCl)c1 | 
13 | inactive | Active | O=C(NCc1cn(-c2ccc3scnc3c2)nn1)Nc1cccc(CCl)c1 | 
